For test [1], the target named is rh-AChE (Homo sapiens, UniProt P22303). Put plainly: biochemical.
The target in test [2] is rh-BuChE (Homo sapiens, UniProt P06276). Put plainly: IC50 rh-BuChE. The class given is biochemical.
Test [3] has as its target T1, erythrocyte h-AChE (Homo sapiens, UniProt P22303).
T1 construct: from tissue; host or cells: human erythrocytes
Description: IC50 erythrocyte h-AChE. The class given is biochemical. The note with it: read-out: IC50 erythrocyte h-AChE.

In patent publication US9040506B2, “7,11-methanocycloocta [B] quinoline derivative as highly functionalizable acetylcholinesterase inhibitors” (priority 2010, dated 2015) one finds IC50 data, which are given here for 29 molecules.

Where a name gives a salt, the structure may show the parent alone. Read-outs that look alike come from different tables or passages of the source.

Broadly, the IC50 is the concentration that inhibits the measured activity by half.

rh-AChE, sequence (P22303 32-614): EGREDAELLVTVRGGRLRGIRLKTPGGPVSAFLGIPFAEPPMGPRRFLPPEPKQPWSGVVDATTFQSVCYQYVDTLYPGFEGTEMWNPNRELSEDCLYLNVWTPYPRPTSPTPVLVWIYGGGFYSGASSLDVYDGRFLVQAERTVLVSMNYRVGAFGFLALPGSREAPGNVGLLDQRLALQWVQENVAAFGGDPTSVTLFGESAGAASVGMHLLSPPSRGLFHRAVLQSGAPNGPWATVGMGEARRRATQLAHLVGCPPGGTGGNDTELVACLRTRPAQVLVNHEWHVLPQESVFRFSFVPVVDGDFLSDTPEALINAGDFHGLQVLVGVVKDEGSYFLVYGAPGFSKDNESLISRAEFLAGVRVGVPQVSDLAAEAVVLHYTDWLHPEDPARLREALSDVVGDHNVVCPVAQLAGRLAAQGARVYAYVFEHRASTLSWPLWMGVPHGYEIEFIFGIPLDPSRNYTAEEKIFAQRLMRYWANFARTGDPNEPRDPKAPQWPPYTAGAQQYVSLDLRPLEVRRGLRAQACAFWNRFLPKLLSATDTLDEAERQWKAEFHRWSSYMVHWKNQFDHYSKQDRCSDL
T1 sequence (P22303 32-617 isoform P22303-2 limits assumed): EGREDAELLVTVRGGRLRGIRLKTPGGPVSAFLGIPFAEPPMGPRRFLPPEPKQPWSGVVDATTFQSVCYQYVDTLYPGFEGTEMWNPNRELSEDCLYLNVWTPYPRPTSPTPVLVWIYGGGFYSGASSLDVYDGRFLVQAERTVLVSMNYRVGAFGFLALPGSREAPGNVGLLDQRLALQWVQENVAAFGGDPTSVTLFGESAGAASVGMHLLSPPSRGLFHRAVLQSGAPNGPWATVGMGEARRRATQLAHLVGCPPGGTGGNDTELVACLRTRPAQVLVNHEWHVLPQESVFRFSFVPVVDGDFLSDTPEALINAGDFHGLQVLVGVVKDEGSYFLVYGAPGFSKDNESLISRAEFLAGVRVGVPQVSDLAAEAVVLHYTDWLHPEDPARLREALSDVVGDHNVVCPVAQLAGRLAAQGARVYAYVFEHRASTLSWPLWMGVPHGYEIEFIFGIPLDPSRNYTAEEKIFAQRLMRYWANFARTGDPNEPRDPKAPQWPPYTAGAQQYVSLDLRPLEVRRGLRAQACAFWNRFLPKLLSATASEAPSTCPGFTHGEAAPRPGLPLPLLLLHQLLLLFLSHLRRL
rh-BuChE, sequence (P06276 29-602): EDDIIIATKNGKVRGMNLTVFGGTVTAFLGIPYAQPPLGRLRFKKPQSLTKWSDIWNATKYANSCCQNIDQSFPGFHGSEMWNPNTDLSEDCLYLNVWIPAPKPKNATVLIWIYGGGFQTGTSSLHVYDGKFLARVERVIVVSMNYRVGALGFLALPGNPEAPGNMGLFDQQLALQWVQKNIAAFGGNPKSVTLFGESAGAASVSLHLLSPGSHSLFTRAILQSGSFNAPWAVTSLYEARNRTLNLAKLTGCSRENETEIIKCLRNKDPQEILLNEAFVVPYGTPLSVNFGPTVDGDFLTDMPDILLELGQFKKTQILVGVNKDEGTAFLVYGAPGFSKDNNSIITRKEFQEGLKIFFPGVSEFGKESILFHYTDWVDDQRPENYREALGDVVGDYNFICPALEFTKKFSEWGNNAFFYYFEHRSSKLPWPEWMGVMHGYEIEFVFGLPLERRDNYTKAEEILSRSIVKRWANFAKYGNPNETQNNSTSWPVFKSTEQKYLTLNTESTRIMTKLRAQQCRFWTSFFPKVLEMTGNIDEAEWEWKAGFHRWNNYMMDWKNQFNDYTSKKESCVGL

For the molecule `COc1cc2c(cc1OC)C(c1ccccc1)N(Cc1cn(CCCCC3=CC4Cc5nc6cc(Cl)ccc6c(N)c5C(C3)C4)nn1)CC2` (centres unmarked) [HUP32-PIQ1, 3-Chloro-9-(4-{4-[(6,7-dimethoxy-1-phenyl-3,4-dihydroisoquinolin-2(1H)-yl)methyl]-1H-1,2,3-triazol-1-yl}butyl)-6,7,10,11-tetrahydro-7,11-methanocycloocta[b]quinolin-12-amine Ditrifluoroacetic Acid], the results for the IC50 in test [1] (read-out: IC50 rh-AChE) and in test [2] (read-out: IC50 rh-BuChE) were 3.31 ± 0.2 nM and 20.6 ± 0.2 nM, respectively.

With `COc1cc2c(cc1OC)C(c1ccccc1)N(CCCc1cn(CCCCC3=CC4Cc5nc6cc(Cl)ccc6c(N)c5C(C3)C4)nn1)CC2` (centres unmarked) [HUP32-PIQ3, 3-Chloro-9-(4-{4-[3-(6,7-dimethoxy-1-phenyl-3,4-dihydroisoquinolin-2(1H)-yl)propyl]-1H-1,2,3-triazol-1-yl}butyl)-6,7,10,11-tetrahydro-7,11-methanocycloocta[b]quinolin-12-amine Ditrifluoroacetic Acid], the IC50 in test [1] (read-out: IC50 rh-AChE) is 0.61 ± 0.1 nM; in test [2] (read-out: IC50 rh-BuChE), 11.4 ± 0.6 nM.

For `COc1cc2c(cc1OC)C(c1ccccc1)N(CCCCc1cn(CCCCC3=CC4Cc5nc6cc(Cl)ccc6c(N)c5C(C3)C4)nn1)CC2` (centres unmarked) [HUP32-PIQ4, 3-Chloro-9-(4-{4-[4-(6,7-dimethoxy-1-phenyl-3,4-dihydroisoquinolin-2(1H)-yl)butyl]-1H-1,2,3-triazol-1-yl}butyl)-6,7,10,11-tetrahydro-7,11-methanocycloocta[b]quinolin-12-amine Ditrifluoroacetic Acid], the concentration for half-maximal inhibition (IC50) turned out to be 0.78 ± 0.1 nM in test [1] (read-out: IC50 rh-AChE) and 9.5 ± 0.6 nM in test [2] (read-out: IC50 rh-BuChE).

For `CCOC(=O)CC1=CC2Cc3nc4cc(Cl)ccc4c(N)c3C(C1)C2` (centres unmarked) [HUP 1, Ethyl (12-Amino-3-chloro-6,7,10,11-tetrahydro-7,11-methanocycloocta[b]quinolin-9-yl)acetate], the half-inhibitory concentration (IC50) in test [1] (read-out: IC50 rh-AChE) stood at 3.9 ± 0.5 nM; in test [3], 38.3 nM; in test [2] (read-out: IC50 rh-BuChE), 137 ± 11 nM.

Take `C=CC1=CC2Cc3nc4cc(Cl)ccc4c(N)c3C(C1)C2` (centres unmarked) [HUP 3, 3-Chloro-9-vinyl-6,7,10,11-tetrahydro-7,11-methanocycloocta[b]quinolin-12-amine Trifluoroacetic Acid]: the IC50 in test [1] (read-out: IC50 rh-AChE) was 1.32 ± 0.17 nM; in test [3], 405 nM; in test [2] (read-out: IC50 rh-BuChE), 180 ± 13 nM.

As to `CC(=O)OCCC1=CC2Cc3nc4cc(Cl)ccc4c(N)c3C(C1)C2` (centres unmarked) [HUP 4, 2-(12-Amino-3-chloro-6,7,10,11-tetrahydro-7,11-methanocycloocta[b]quinolin-9-yl)ethyl Acetate], the IC50 turned out to be 1.44 ± 0.18 nM in test [1] (read-out: IC50 rh-AChE) and 12 nM in test [3].

Consider `Nc1c2c(nc3cc(Cl)ccc13)CC1C=C(CCOC(=O)C(F)(F)F)CC2C1` (centres unmarked) [HUP 5, 2-(12-Amino-3-chloro-6,7,10,11-tetrahydro-7,11-methanocycloocta[b]quinolin-9-yl)ethyl Trifluoroacetate], for which the IC50 came out at 1.69 ± 0.16 nM in test [1] (read-out: IC50 rh-AChE), 27.5 nM in test [3] and 1360 nM in test [2] (read-out: IC50 rh-BuChE).

On to `Nc1c2c(nc3cc(Cl)ccc13)CC1C=C(CCI)CC2C1` (centres unmarked) [HUP 7, 3-Chloro-9-(2-iodoethyl)-6,7,10,11-tetrahydro-7,11-methanocycloocta[b]quinolin-12-amine], for which the IC50 is 2.7 ± 0.82 nM in test [1] (read-out: IC50 rh-AChE) and 141 ± 7 nM in test [2] (read-out: IC50 rh-BuChE).

Turning to `N#CCCC1=CC2Cc3nc4cc(Cl)ccc4c(N)c3C(C1)C2` (centres unmarked) [HUP 8, 3-(12-Amino-3-chloro-6,7,10,11-tetrahydro-7,11-methanocycloocta[b]quinolin-9-yl)propanenitrile Trifluoroacetic Acid], the IC50 in test [1] (read-out: IC50 rh-AChE) stood at 3.15 ± 0.42 nM; in test [2] (read-out: IC50 rh-BuChE), 514 ± 58 nM.

As for `Nc1c2c(nc3cc(Cl)ccc13)CC1C=C(CCF)CC2C1` (centres unmarked) [HUP 10, 3-Chloro-9-(2-fluoroethyl)-6,7,10,11-tetrahydro-7,11-methanocycloocta[b]quinolin-12-amine], the IC50 is 4.16 ± 0.79 nM in test [1] (read-out: IC50 rh-AChE) and 522 ± 120 nM in test [2] (read-out: IC50 rh-BuChE).

`Nc1c2c(nc3cc(Cl)ccc13)CC1C=C(CC(=O)O)CC2C1` (centres unmarked) [HUP 11, 12-Amino-3-chloro-9-carboxymethyl-6,7,10,11-tetrahydro-7,11 methanocycloocta[b]quinoline Hydrochloride] registered an IC50 in test [1] of 5.3 ± 1.1 nM.

On to `[N-]=[N+]=NCCC1=CC2Cc3nc4cc(Cl)ccc4c(N)c3C(C1)C2` (centres unmarked) [HUP 12, 9-(2-Azidoethyl)-3-chloro-6,7,10,11-tetrahydro-7,11-methanocycloocta[b]quinolin-12-amine], for which the results for the IC50 in test [1] (read-out: IC50 rh-AChE) and in test [2] (read-out: IC50 rh-BuChE) were 5.56 ± 0.82 nM and 522 ± 120 nM, respectively.

Regarding `CS(=O)(=O)OCCC1=CC2Cc3nc4cc(Cl)ccc4c(N)c3C(C1)C2` (centres unmarked) [HUP 13, 2-(12-Amino-3-chloro-6,7,10,11-tetrahydro-7,11-methanocycloocta[b]quinolin-9-yl) Ethyl Methanesulfonate], the IC50 in test [1] (read-out: IC50 rh-AChE) is 8.5 ± 1.1 nM; in test [2] (read-out: IC50 rh-BuChE), 415 ± 97 nM.

For `NNCCC1=CC2Cc3nc4cc(Cl)ccc4c(N)c3C(C1)C2` (centres unmarked) [HUP 14, 3-Chloro-9-(2-hydrazinoethyl)-6,7,10,11-tetrahydro-7,11-methanocyclo octa[b]quinolin-12-amine Ditrifluoroacetic Acid], the half-inhibitory concentration (IC50) in test [1] (read-out: IC50 rh-AChE) was 9.5 ± 2.7 nM; in test [2], 668 ± 110 nM.

`Nc1c2c(nc3cc(Cl)ccc13)CC1C=C(CCNO)CC2C1` (centres unmarked) [HUP 15, 3-Chloro-9-[2-(hydroxyamino)ethyl]-6,7,10,11-tetrahydro-7,11-methano cycloocta[b]quinolin-12-amine Ditrifluoroacetic Acid]: the IC50 in test [1] (read-out: IC50 rh-AChE) was 18.5 ± 2.2 nM.

`CC(C)(C)OC(=O)ON(CCC1=CC2Cc3nc4cc(Cl)ccc4c(N)c3C(C1)C2)C(=O)OC(C)(C)C` (centres unmarked) [HUP 16, Tert-butyl[2-(12-amino-3-chloro-6,7,10,11-tetrahydro-7,11-methanocycloocta[b]quinolin-9-yl)ethyl][(tert-butoxycarbonyl)oxy]carbamate]: the 50% inhibitory concentration (IC50) in test [1] (read-out: IC50 rh-AChE) is 14.8 ± 3.2 nM; in test [2] (read-out: IC50 rh-BuChE), 421 ± 72 nM.

In the case of `NC(=O)OCCC1=CC2Cc3nc4cc(Cl)ccc4c(N)c3C(C1)C2` (centres unmarked) [HUP 17, 2-(12-Amino-3-chloro-6,7,10,11-tetrahydro-7,11-methanocycloocta[b]quinolin-9-yl)ethyl Carbamate Trifluoroacetic Acid], the IC50 was determined as 18.5 ± 2.2 nM in test [1] (read-out: IC50 rh-AChE) and 413 ± 40 nM in test [2] (read-out: IC50 rh-BuChE).

As to `CN(C)C(=O)CC1=CC2Cc3nc4cc(Cl)ccc4c(N)c3C(C1)C2` (centres unmarked) [HUP 19, 2-(12-Amino-3-chloro-6,7,10,11-tetrahydro-7,11-methanocycloocta[b]quinolin-9-yl)-N,N-dimethylacetamide Trifluoroacetic Acid], the IC50 in test [1] (read-out: IC50 rh-AChE) is 26.3 ± 1.7 nM; in test [2] (read-out: IC50 rh-BuChE), 2760 nM.

Turning to `NC(=O)CC1=CC2Cc3nc4cc(Cl)ccc4c(N)c3C(C1)C2` (centres unmarked) [HUP 20, 2-(12-Amino-3-chloro-6,7,10,11-tetrahydro-7,11-methanocycloocta[b]quinolin-9-yl)acetamide Trifluoroacetic Acid], in test [1] (read-out: IC50 rh-AChE), the half-inhibitory concentration (IC50) worked out at 29.3 ± 3.7 nM.

Consider `CN(C)CCC1=CC2Cc3nc4cc(Cl)ccc4c(N)c3C(C1)C2` (centres unmarked) [HUP 21, 3-Chloro-9-[2-(dimethylamino)ethyl]-6,7,10,11-tetrahydro-7,11-methano cycloocta[b]quinolin-12-amine Ditrifluoroacetic Acid], for which the IC50 in test [1] (read-out: IC50 rh-AChE) came to 97 ± 10 nM; in test [2] it was 2910 nM.

As to `COC(=O)c1cn(CCC2=CC3Cc4nc5cc(Cl)ccc5c(N)c4C(C2)C3)nn1` (centres unmarked) [HUP 22, Methyl 1-[2-(12-amino-3-chloro-6,7,10,11-tetrahydro-7,11-methanocycloocta[b]quinolin-9-yl)ethyl]-1H-1,2,3-triazole-4-carboxylate], the 50% inhibitory concentration (IC50) in test [1] (read-out: IC50 rh-AChE) is 130 ± 15 nM.

As for `Nc1c2c(nc3cc(Cl)ccc13)CC1C=C(CCn3cc(CO)nn3)CC2C1` (centres unmarked) [HUP 23, {1-[2-(12-Amino-3-chloro-6,7,10,11-tetrahydro-7,11-methanocycloocta[b]quinolin-9-yl)ethyl]-1H-1,2,3-triazol-4-yl}methanol Trifluoroacetic Acid], the half-inhibitory concentration (IC50) in test [1] (read-out: IC50 rh-AChE) came to 210 ± 28 nM.

In the case of `C[N+](C)(C)CCC1=CC2Cc3nc4cc(Cl)ccc4c(N)c3C(C1)C2` (centres unmarked) [HUP 25, 2-(12-Amino-3-chloro-6,7,10,11-tetrahydro-7,11-methanocycloocta[b]quinolin-9-yl)-N,N,N-trimethylethanaminium Ditrifluoroacetic Acid], the concentration for half-maximal inhibition (IC50) in test [1] (read-out: IC50 rh-AChE) was determined as 262 ± 22 nM.

As to `Nc1c2c(nc3cc(Cl)ccc13)CC1C=C(CCC(CO)CO)CC2C1` (centres unmarked) [HUP 28, 2-[2-(12-Amino-3-chloro-6,7,10,11-tetrahydro-7,11-methanocycloocta[b]quinolin-9-yl)ethyl]propane-1,3-diol Trifluoroactic Acid], the IC50 stood at 24.7 ± 1.2 nM in test [1] (read-out: IC50 rh-AChE) and 40.2 nM in test [3].

For the molecule `Nc1c2c(nc3cc(Cl)ccc13)CC1C=C(CCCCn3cc(COC(=O)C(F)(F)F)nn3)CC2C1` (centres unmarked) [HUP 35, {1-[4-(12-Amino-3-chloro-6,7,10,11-tetrahydro-7,11-methanocycloocta[b]quinolin-9-yl)butyl]-1H-1,2,3-triazol-4-yl}methyl Trifluoroacetate], the IC50 in test [1] (read-out: IC50 rh-AChE) turned out to be 34.6 ± 2.6 nM; in test [3] it was 69.8 nM.

As to `C=C1c2nc3cc(Cl)ccc3c(N)c2C2CC(CCCC(=O)OCC)=CC1C2` (centres unmarked) [HUP 36, Ethyl 4-(12-Amino-3-chloro-6-methylene-6,7,10,11-tetrahydro-7,11-methanocycloocta[b]quinolin-9-yl)butanoate], in test [1] (read-out: IC50 rh-AChE), the half-maximal inhibitory concentration (IC50) was found to be 90.6 ± 8.4 nM.

As for `C=C1c2nc3cc(Cl)ccc3c(N)c2C2CC(CCCCO)=CC1C2` (centres unmarked) [HUP 37, 4-(12-Amino-3-chloro-6-methylene-6,7,10,11-tetrahydro-7,11-methanocycloocta[b]quinolin-9-yl)butan-1-ol Trifluoroacetic Acid], the concentration for half-maximal inhibition (IC50) in test [1] (read-out: IC50 rh-AChE) was found to be 256 ± 34 nM.

In the case of `Nc1c2c(nc3ccccc13)CC1C=C(CCCCn3cc(CO)nn3)CC2C1` (centres unmarked) [HUP 38, {1-[4-(12-Amino-6,7,10,11-tetrahydro-7,11-methanocycloocta[b]quinolin-9-yl)butyl]-1H-1,2,3-triazol-4-yl}methanol Trifluoroacetic Acid], the 50% inhibitory concentration (IC50) in test [1] (read-out: IC50 rh-AChE) is 94.1 ± 2.8 nM; in test [2] (read-out: IC50 rh-BuChE), 357 ± 16 nM.

With `CS(=O)(=O)OCCC1=CC2Cc3nc4ccccc4c(N)c3C(C1)C2` (centres unmarked) [HUP 39, 2-(12-Amino-6,7,10,11-tetrahydro-7,11-methanocycloocta[b]quinolin-9-yl) Ethyl Methanesulfonate], the IC50 in test [1] (read-out: IC50 rh-AChE) was 149 ± 6 nM; in test [2] (read-out: IC50 rh-BuChE), 171 ± 4 nM.
